The target of one test is PIK3CA (UniProt P42336). The test can be described thus: PI 3-Kinase Inhibition. Conditions: for inhibition: concentration not given here.
In a further test the test system is PIK3CA (rat). The test can be described thus: Hexosaminidase Secretion Inhibition (RBL-2H3 cells). As to conditions: rbl2h3.

Some results are limits rather than exact numbers.

Sequence of PIK3CA (P42336 whole entry, looked up): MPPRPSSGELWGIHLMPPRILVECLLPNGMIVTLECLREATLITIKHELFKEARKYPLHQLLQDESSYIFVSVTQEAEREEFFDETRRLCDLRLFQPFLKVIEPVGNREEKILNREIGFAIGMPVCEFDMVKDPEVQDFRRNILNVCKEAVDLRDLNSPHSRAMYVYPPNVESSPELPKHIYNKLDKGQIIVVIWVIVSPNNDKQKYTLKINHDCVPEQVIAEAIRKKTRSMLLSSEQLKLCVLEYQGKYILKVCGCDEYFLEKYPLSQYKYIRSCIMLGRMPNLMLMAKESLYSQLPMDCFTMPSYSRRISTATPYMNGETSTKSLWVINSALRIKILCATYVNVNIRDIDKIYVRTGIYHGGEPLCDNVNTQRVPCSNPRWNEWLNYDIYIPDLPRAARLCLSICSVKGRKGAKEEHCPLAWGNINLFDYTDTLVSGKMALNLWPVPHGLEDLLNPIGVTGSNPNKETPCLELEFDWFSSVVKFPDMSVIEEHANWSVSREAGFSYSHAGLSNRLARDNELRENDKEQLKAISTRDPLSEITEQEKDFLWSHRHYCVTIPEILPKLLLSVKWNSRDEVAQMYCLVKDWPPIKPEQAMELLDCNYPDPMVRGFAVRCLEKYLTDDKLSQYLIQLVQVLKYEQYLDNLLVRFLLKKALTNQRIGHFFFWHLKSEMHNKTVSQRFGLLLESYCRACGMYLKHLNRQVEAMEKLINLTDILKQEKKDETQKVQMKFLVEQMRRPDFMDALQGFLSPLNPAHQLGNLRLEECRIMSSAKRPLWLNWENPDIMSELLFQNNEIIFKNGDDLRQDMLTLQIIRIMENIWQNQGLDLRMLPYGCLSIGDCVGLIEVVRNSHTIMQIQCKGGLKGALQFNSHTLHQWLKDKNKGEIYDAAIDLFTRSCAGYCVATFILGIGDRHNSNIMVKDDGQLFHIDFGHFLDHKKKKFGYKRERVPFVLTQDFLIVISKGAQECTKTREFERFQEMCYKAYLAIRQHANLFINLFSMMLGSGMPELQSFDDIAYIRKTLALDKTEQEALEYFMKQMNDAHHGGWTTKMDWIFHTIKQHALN

For the compound `CCCCCCCCCCCCCCCC(=O)OC[C@@H](COP(=O)(O)O[C@H]1[C@H](O)[C@@H](O)[C@H](O)[C@@H](CO)[C@H]1O)OC(=O)CCCCCCCCCCCCCCC`, at PIK3CA, the IC50 (as a rule, the concentration needed to halve the response being measured) was 35 µM and the inhibition (usually the relative decrease from the control value, in per cent) stood at 85%.

As to `CCCCCCCCCCCCCCCC(=O)OC[C@@H](COP(=O)(O)O[C@H]1[C@H](O)[C@@H](O)[C@H](O)[C@@H](CI)[C@H]1O)OC(=O)CCCCCCCCCCCCCCC`, the inhibition on PIK3CA was found to be 60%.

In turn, `CCCCCCCCCCCCCCCC(=O)OC[C@@H](COP(=O)(O)O[C@H]1[C@H](O)[C@@H](O)[C@H](O)[C@@H](CF)[C@H]1O)OC(=O)CCCCCCCCCCCCCCC` displayed an inhibition at PIK3CA of 60%. Same read-out and setting: the value for `CCCCCCCCCCCCCCCC(=O)OC[C@@H](COP(=O)(O)O[C@H]1[C@H](O)[C@@H](O)[C@H](O)[C@@H](CBr)[C@H]1O)OC(=O)CCCCCCCCCCCCCCC` was 60%. At PIK3CA, `CCCCCCCCCCCCCCCC(=O)OC[C@@H](COP(=O)(O)O[C@H]1[C@H](O)[C@@H](O)[C@H](O)[C@@H](CN)[C@H]1O)OC(=O)CCCCCCCCCCCCCCC` had an IC50 of 20 µM and an inhibition of more than 98%. The same compound showed an IC50 in the test on PIK3CA (rat) of 17 µM.

Compound `CCCCCCCCCCCCCCCC(=O)OC[C@@H](COP(=O)(O)O[C@H]1[C@H](O)[C@@H](O)[C@H](O)[C@@H](CCl)[C@H]1O)OC(=O)CCCCCCCCCCCCCCC` displayed an inhibition against PIK3CA of 60%. For `O=c1cc(N2CCOCC2)oc2c(-c3ccccc3)cccc12`, the IC50 with PIK3CA (rat) amounted to 1.8 µM.

(Values after the Kinase Knowledgebase extract (Sharma et al. 2016).)
